Results published in ChEMBL document CHEMBL3217636, “Design, synthesis and biological evaluation of novel benzothiazole and triazole analogs as falcipain inhibitors” (Medchemcomm, 2011).
Activity calls are given as the source filed them. The calls are words filed in the database; no cut-off is given here.

Tests used:
[1] = Inhibition of Plasmodium falciparum recombinant falcipain 2
[2] = Inhibition of Plasmodium falciparum recombinant falcipain 3
Plasmodium falciparum [3] = experiment: Antimalarial activity against Plasmodium falciparum W2 at 10 uM; format: functional, organism-based
Cathepsin K = molecular target: T1, Cathepsin K (Homo sapiens, UniProt P43235); experiment: Inhibition of human cathepsin K
T1 sequence (P43235 whole entry): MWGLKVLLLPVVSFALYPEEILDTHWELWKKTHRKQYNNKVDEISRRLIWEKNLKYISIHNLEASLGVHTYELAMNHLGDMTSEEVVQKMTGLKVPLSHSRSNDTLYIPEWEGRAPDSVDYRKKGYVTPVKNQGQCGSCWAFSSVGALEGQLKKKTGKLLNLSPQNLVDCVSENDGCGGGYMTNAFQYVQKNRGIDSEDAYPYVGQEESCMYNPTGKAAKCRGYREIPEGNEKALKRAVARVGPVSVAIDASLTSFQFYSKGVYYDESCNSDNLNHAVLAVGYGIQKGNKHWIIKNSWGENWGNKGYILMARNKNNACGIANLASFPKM

Procathepsin L = Procathepsin L (Homo sapiens, UniProt P07711); experiment: Inhibition of human cathepsin L1
Procathepsin L, sequence (P07711 whole entry): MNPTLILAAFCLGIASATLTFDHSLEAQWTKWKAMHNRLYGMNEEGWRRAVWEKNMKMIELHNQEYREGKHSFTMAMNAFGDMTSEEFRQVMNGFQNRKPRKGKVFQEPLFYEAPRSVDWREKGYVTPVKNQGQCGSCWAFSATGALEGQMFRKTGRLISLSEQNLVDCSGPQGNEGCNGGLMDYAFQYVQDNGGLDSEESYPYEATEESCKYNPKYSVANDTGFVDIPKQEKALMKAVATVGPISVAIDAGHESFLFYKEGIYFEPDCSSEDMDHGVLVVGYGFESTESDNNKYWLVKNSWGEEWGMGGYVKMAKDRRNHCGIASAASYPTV

Cathepsin B = Cathepsin B (Homo sapiens, UniProt P07858); experiment: Inhibition of human cathepsin B
Plasmodium falciparum [4] = experiment: Antimalarial activity against Plasmodium falciparum W2; format: functional, organism-based

SMILES	IC50 [1] [µM]	also measured
N[C@@H](C(=O)Nc1ccc2nc(SCC(=O)c3ccc4ccccc4c3)sc2c1)c1ccccc1	12.8	IC50 [2]: 14.9 µM; Activity (Plasmodium falciparum [3]): inactive; IC50 (Cathepsin K): 5.62 µM; IC50 (Procathepsin L): 4.39 µM; IC50 (Cathepsin B): > 50 µM
CCOC(=O)CSc1nc2ccc(N)cc2s1	> 50	–
Cc1cc(NC(=O)Cn2cc(-c3cccc(O)c3)nn2)no1	> 50	–
Cc1ccc(NC(=O)CSc2nc3ccc(NS(=O)(=O)c4ccc(F)cc4)cc3s2)cc1	16.5	–
Cc1cc(NC(=O)Cn2cc(-c3cccnc3)nn2)no1	> 50	–
O=C(CSc1nc2ccc(NS(=O)(=O)c3ccccc3[N+](=O)[O-])cc2s1)c1ccccc1	11.1	–
COc1ccc2cc(-c3cn(CC(=O)Nc4cc(C)on4)nn3)ccc2c1	38.4	–
Nc1ccc2nc(SCC(=O)c3ccccc3)sc2c1	> 50	–
CC(C)C[C@H](NC(=O)[C@H]1O[C@@H]1C(=O)O)C(=O)NCCCCN=C(N)N [E-64]	0.03	IC50 (Cathepsin K): 0.004 µM; IC50 (Procathepsin L): 0.016 µM; IC50 (Cathepsin B): 0.005 µM
Cc1cc(NC(=O)Cn2nnc(-c3ccc(NC(=O)c4ccc(F)cc4)cc3)n2)no1	2.2	IC50 [2]: 4.95 µM; IC50 (Plasmodium falciparum [4]): > 10 µM; IC50 (Cathepsin K): 3.83 µM; IC50 (Procathepsin L): 24.4 µM; IC50 (Cathepsin B): 37.1 µM
Cc1cc(NC(=O)Cn2cc(-c3ccc(C=O)cc3)nn2)no1	> 50	–
Cc1ccc(NC(=O)CSc2nc3ccc(NC(=O)[C@H](N)C(C)C)cc3s2)cc1	> 50	–
Cc1ccc(NC(=O)CSc2nc3ccc(NC(=O)[C@H](N)c4ccccc4)cc3s2)cc1	> 50	–
CCOC(=O)CSc1nc2ccc(NS(=O)(=O)c3ccc4ccncc4c3)cc2s1	31.3	–
CCCCCc1ccc(-c2cn(CC(=O)Nc3cc(C)on3)nn2)cc1	39	–
O=C(CSc1nc2ccc(NS(=O)(=O)c3ccc(OC(F)(F)F)cc3)cc2s1)c1ccc2ccccc2c1	> 50	–
C[C@@H]1CC[C@H]2[C@@H](C)C(=O)O[C@@H]3O[C@@]4(C)CC[C@@H]1[C@]32OO4 [ARTEMISININ]	–	IC50 (Plasmodium falciparum [4]): 0.012 µM
CCOC(=O)CSc1nc2ccc(NS(=O)(=O)CC(F)(F)F)cc2s1	> 50	–
Cc1cc(NC(=O)Cn2cc(-c3cccc4ccccc34)nn2)no1	> 50	–
CCOC(=O)CSc1nc2ccc(NS(=O)(=O)c3ccc(F)cc3)cc2s1	> 50	–
Cc1cc(NC(=O)Cn2cc(-c3ccc(F)cc3)nn2)no1	> 50	–
CC(C)[C@@H](N)C(=O)Nc1ccc2nc(SCC(=O)c3ccc4ccccc4c3)sc2c1	12.2	IC50 [2]: 13.8 µM; IC50 (Plasmodium falciparum [4]): 4.65 µM; IC50 (Cathepsin K): 14.5 µM; IC50 (Procathepsin L): 5.87 µM; IC50 (Cathepsin B): > 50 µM
CCOC(=O)CSc1nc2ccc(NS(=O)(=O)c3ccccc3[N+](=O)[O-])cc2s1	> 50	–

Further lines, with some results ahead:

IC50 [1] [µM]	SMILES	also measured
24.3	Cc1ccc(NC(=O)CSc2nc3ccc(NS(=O)(=O)CC(F)(F)F)cc3s2)cc1	–
35.7	O=C(CSc1nc2ccc(NS(=O)(=O)c3ccc(OC(F)(F)F)cc3)cc2s1)c1ccccc1	–
> 50	O=C(CSc1nc2ccc(NS(=O)(=O)c3ccc4ccncc4c3)cc2s1)c1ccc2ccccc2c1	IC50 (Plasmodium falciparum [4]): 2.08 µM
13.2	CC(=O)Nc1ccc2nc(SCC(=O)c3ccc4ccccc4c3)sc2c1	–
10.3	COc1ccc(C(=O)Nc2ccc3nc(SCC(=O)c4ccccc4)sc3c2)cc1	IC50 [2]: > 50 µM; IC50 (Plasmodium falciparum [4]): > 10 µM; IC50 (Cathepsin K): 6.12 µM; IC50 (Procathepsin L): 31.6 µM; IC50 (Cathepsin B): 17.7 µM
> 50	Cc1ccc(NC(=O)CSc2nc3ccc(N)cc3s2)cc1	–
> 50	Cc1cc(NC(=O)Cn2cc(COc3ccccc3)nn2)no1	–
16.9	Cc1ccc(NC(=O)CSc2nc3ccc(NS(=O)(=O)c4ccc(OC(F)(F)F)cc4)cc3s2)cc1	–
19.9	Cc1cc(NC(=O)Cn2cc(-c3ccc(Oc4ccccc4)cc3)nn2)no1	IC50 [2]: 39.7 µM
13.9	CC(=O)Nc1ccc2nc(SCC(=O)Nc3ccc(C)cc3)sc2c1	–
> 50	Cc1cc(NC(=O)Cn2cc(-c3ccccc3)nn2)no1	–
> 50	Cc1cc(NC(=O)Cn2cc(CCCCl)nn2)no1	–
43.2	O=C(CSc1nc2ccc(NS(=O)(=O)c3ccc(F)cc3)cc2s1)c1ccc2ccccc2c1	–
14	Cc1ccc(NC(=O)CSc2nc3ccc(NS(=O)(=O)c4ccc5ccncc5c4)cc3s2)cc1	–
> 50	Cc1cccc(-c2cn(CC(=O)Nc3cc(C)on3)nn2)c1	–
> 50	Nc1ccc2nc(SCC(=O)c3ccc4ccccc4c3)sc2c1	–
